Experimental data from patent publication US20220380375A1, “SUBSTITUTED AROMATIC FUSED RING DERIVATIVE AND COMPOSITION COMPRISING SAME, AND USE THEREOF” (Shenzhen TargetRx, Inc., priority 2019, published 2022).

What was measured:
[1] = target: T1, Ba/F3 FLT3-ITD^F691L cells (Homo sapiens, UniProt P36888, F691L, cells depend on it, form not given); test: Cytotoxicity assay (CellTiter-Glo), Ba/F3 FLT3-ITD F691L; assay type: cell-based; details: CellTiter-Glo, 72 hrs; read-out: Ba/F3 FLT3-ITD^F691L IC50
T1 construct: Ba/F3 FLT3-ITD^F691L IC50 (nM); other: CellTiter-Glo, 72 hrs
T1 sequence (P36888 1-993 F691L): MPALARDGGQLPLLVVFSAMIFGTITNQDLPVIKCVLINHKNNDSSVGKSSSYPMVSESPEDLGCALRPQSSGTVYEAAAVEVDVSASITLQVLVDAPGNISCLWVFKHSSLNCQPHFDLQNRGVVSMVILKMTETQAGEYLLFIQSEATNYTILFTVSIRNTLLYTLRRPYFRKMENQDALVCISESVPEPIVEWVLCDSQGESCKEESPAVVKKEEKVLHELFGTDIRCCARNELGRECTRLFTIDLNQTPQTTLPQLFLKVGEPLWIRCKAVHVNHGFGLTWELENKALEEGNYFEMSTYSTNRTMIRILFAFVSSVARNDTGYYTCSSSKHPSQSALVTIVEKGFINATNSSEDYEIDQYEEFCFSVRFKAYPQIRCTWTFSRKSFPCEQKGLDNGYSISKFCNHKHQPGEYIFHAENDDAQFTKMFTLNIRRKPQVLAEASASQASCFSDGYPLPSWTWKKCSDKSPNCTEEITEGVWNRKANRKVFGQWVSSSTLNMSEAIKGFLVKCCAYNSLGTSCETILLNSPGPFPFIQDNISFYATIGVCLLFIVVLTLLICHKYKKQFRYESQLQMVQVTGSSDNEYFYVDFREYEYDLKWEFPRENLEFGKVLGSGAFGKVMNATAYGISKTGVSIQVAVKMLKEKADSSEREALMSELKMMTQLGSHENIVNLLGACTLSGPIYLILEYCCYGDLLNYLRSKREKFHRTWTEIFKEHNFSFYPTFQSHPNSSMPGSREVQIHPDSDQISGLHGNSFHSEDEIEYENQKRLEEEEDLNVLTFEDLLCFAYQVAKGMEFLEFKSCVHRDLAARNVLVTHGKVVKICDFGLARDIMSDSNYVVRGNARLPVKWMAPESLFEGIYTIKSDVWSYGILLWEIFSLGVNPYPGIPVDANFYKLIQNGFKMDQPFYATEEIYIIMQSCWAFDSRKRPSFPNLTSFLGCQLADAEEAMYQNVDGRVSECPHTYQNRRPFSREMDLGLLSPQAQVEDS
Protocol: (§1) Inhibitory effects of example compounds on the activity of Ba/F3 parental generation, Ba/F3 KIF5B-RET, Ba/F3 KIF5B-RET^V804M, Ba/F3 KIF5B-RET^V804L, Ba/F3 KIF5B-RET^G810R, Ba/F3 FLT3-ITD, Ba/F3 FLT3-ITD^D835Y, Ba/F3 FLT3-ITD^F691L cells were determined.
(§2) Materials and reagents: fetal bovine serum FBS (GIBCO, Cat #10099141), CellTiter-Glo® Luminescent Cell Viability Assay kit (Promega, Cat #G7572), 96-well black-wall clear flat-bottom plate (Corning®, Cat #3603).
(§3) 1. Cells in the logarithmic growth phase were harvested and counted with a […]. Cell viability was detected by a trypan blue exclusion method, ensuring that cell viability was 90% or more; 2. Cell concentration was adjusted to about 3000 cells/well; 90 μl of cell suspension was added to each well of the 96-well plate; 3. The cells in the 96-well plate were incubated overnight under the condition of 37° C., 5% CO2, and 95% humidity.
(§4) 1. A series of compound solutions were formulated by 3.16-fold serial dilution starting from a concentration of 10 μM, resulting in 9 concentrations. 10 μL of the compound solutions were added in each well of the 96-well plate seeded with cells in triplicate for each compound concentration; 2. The cells in the 96-well plate added with compounds were further incubated under the condition of 37° C., 5% CO2, and 95% humidity for 72 hrs, and then CTG analysis was carried out.
(§5) 1. CTG reagent was thawed, and the cell plate was equilibrated at room temperature for 30 minutes; 2. An equal volume […] of CTG solution was added to each well; 3. The cell plate was shaken on an orbital shaker for 5 minutes to lyse the cells; 4. The cell plate was placed at RT for 20 minutes to stabilize the luminescence signal; 5. Luminescence value was read.
(§6) Data were Analyzed by GraphPad Prism 5.0 Software, and Fitted by Nonlinear S-Curve Regression to obtain a dose-response curve, from which IC50 values were calculated.
(§7) Cell survival rate (%)=(luminescence value of drug to be tested−luminescence value of culture medium control)/(luminescence value of cell control−luminescence value of culture medium control)×100%.

[2] = system: Ba/F3 FLT3-ITD^F691L cells; test: as above; assay type: cell-based; details: ratio of Ba/F3 parental IC50 to Ba/F3 FLT3-ITD^F691L IC50
Protocol: as §1, §2, §3, §4, §5, §6, §7

[3] = Safety assay (body weight, tolerability) in Ba/F3 KIF5B-RET cell line tumor model; assay type: in vivo; details: for Number of animals at the beginning/end of assay: 10 mg/kg p.o. QD × 14; for Average weight g (x ± S), Day 0 of administration: 10 mg/kg p.o. QD × 14, day 0 (baseline); for Average weight g (x ± S), Day 14 of administration / Weight change rate (%), Day 14 of administration: 10 mg/kg p.o. QD × 14, day 14; for tolerability (weight loss, drug withdrawal, drug toxicity): during the treatment
Protocol: (§8) Assay methods: 1) Ba/F3 KIF5B-RET and Ba/F3 KIF5B-RET^G810R cells were respectively resuscitated and Cultured in vitro, and 3×10^7 cells of each type were obtained. 2) 60 female NPSG mice aged 6-8 weeks were adaptively bred for 1 week and then weighed. 4) After inoculation, tumor volume and body weight were measured once a week. When average tumor volume reached about […], mice inoculated with each type of Ba/F3 cells were randomly divided into 7 groups according to tumor volume and body weight, with 3 mice in each group. The administration was started immediately after grouping. The date of start of administration was regarded as day 0. Informations on administration and grouping were shown in Tables 5 and 6.5) After the start of the administration, the body weight and tumor volume of mice were measured twice a week. 6) After the end of the administration, the assay was over.
(§9) Assay observation and data collection: After tumor inoculation, morbidity and death of animals were observed every working day. Daily observation included tumor growth and effects of drugs on laboratory animals, such as changes in activity, changes in feeding and drinking, weight loss, changes in appearance of hair and eye, death and other clinical symptoms. Formula for calculating tumor volume is: tumor volume (mm^3)=½×(a×b^2) (wherein a represents the long diameter and b represents the short diameter)

[4] = Safety assay (body weight, tolerability) in Ba/F3 KIF5B-RET^G810R cell line tumor model; assay type: in vivo; details: for Number of animals at the beginning/end of assay: 25 mg/kg p.o. QD × 13; for Average weight g (x ± S), Day 0 of administration: 25 mg/kg p.o. QD × 13, day 0 (baseline); for Average weight g (x ± S), Day 13 of administration / Weight change rate (%), Day 13 of administration: 25 mg/kg p.o. QD × 13, day 13; for tolerability (weight loss, drug withdrawal, drug toxicity): during the treatment
Protocol: as §8, §9

| SMILES | GI50 [1] | Ba/F3 FLT3-ITD^F691L Selectivity on parental generation [2] | Number of animals at the beginning/end of assay [3] | Average weight g (x ± S), Day 0 of administration [3] | Average weight g (x ± S), Day 14 of administration [3] | Weight change rate (%), Day 14 of administration [3] | tolerability (weight loss, drug withdrawal, drug toxicity) [3] | Number of animals at the beginning/end of assay [4] | Average weight g (x ± S), Day 0 of administration [4] | Average weight g (x ± S), Day 13 of administration [4] | Weight change rate (%), Day 13 of administration [4] | tolerability (weight loss, drug withdrawal, drug toxicity) [4] |
| --- | --- | --- | --- | --- | --- | --- | --- | --- | --- | --- | --- | --- |
| CC(C)n1nc(-c2ccc(NC(=O)Nc3cc(C(C)(C)C(F)(F)F)on3)cc2)c2c(N)ncnc21 [Compound T-2, 1-(4-(4-amino-1-isopropyl-1H-pyrazolo[3,4-d]pyrimidin-3-yl)phenyl)-3-(5-(1,1,1-trifluoro-2-methylprop-2-yl)isoxazol-3-yl)urea] | 2.93 nM | 115.3 | 3/3 | 20.1 ± 0.56 g | 21.7 ± 0.59 g | 8.1% | well tolerated | 3/3 | 19.6 ± 0.47 g | 21.7 ± 0.74 g | 11.05% | well tolerated |
| CC(C)n1cc(-c2ccc(CC(=O)Nc3cc(C(C)(C)C(F)(F)F)on3)cc2)c2c(N)ncnc21 [Compound T-3, 2-(4-(4-amino-7-isopropyl-7H-pyrrolo[2,3-d]pyrimidin-5-yl)phenyl)-N-(5-(1,1,1-trifluoro-2-methylprop-2-yl)isoxazol-3-yl)acetamide] | 0.97 nM | 746.8 | 3/3 | 19.6 ± 0.84 g | 21.5 ± 0.7 g | 9.8% | well tolerated | 3/3 | 19.9 ± 1.18 g | 23.1 ± 1.49 g | 16.01% | well tolerated |
| CC(C)n1nc(-c2ccc(CC(=O)Nc3cc(C(C)(C)C(F)(F)F)on3)c(F)c2)c2c(N)ncnc21 [Compound T-6, 2-(4-(4-amino-1-isopropyl-1H-pyrazolo[3,4-d]pyrimidin-3-yl)-2-fluorophenyl)-N-(5-(1,1,1-trifluoro-2-methylprop-2-yl)isoxazol-3-yl)acetamide] | 6.26 nM | 334.7 | 3/3 | 19.3 ± 0.57 g | 21 ± 0.91 g | 8.8% | well tolerated | 3/3 | 19.4 ± 0.66 g | 22.4 ± 0.46 g | 15.75% | well tolerated |
| CC(C)n1nc(-c2ccc(CC(=O)Nc3cc(C(C)(C)C(F)(F)F)no3)cc2)c2c(N)ncnc21 [Compound T-8, 2-(4-(4-amino-1-isopropyl-1H-pyrazolo[3,4-d]pyrimidin-3-yl)phenyl)-N-(3-(1,1,1-trifluoro-2-methylprop-2-yl)isoxazol-5-yl)acetamide] | 6.28 nM | 585.5 | 3/3 | 20.5 ± 1.07 g | 21.7 ± 0.82 g | 6.0% | well tolerated | 3/3 | 19.6 ± 0.32 g | 22.5 ± 0.73 g | 14.40% | well tolerated |
